ChEMBL document CHEMBL3822420, “New peptide deformylase inhibitors design, synthesis and pharmacokinetic assessment” (Bioorg Med Chem Lett, 2016)
≈ marks a conversion by molar mass, not a printed value.

Tests used:
[1] = Half life in Sprague-Dawley rat at 10 mg/kg, po; assay type: ADME, organism-based; conditions: Sprague-Dawley, in vivo
Enterococcus faecalis [2] = assay: Antibacterial activity against Enterococcus faecalis 14-5; assay type: functional
[3] = system: Staphylococcus epidermidis; assay: Antibacterial activity against methicillin-sensitive Staphylococcus epidermidis 14-3; assay type: functional
[4] = AUC (0 to infinity) in Sprague-Dawley rat at 10 mg/kg, po; assay type: ADME, organism-based; design: dose 10 mg/kg, time infinity, route oral; conditions: Sprague-Dawley, in vivo
Escherichia coli [5] = assay: Antibacterial activity against Escherichia coli 14-1 expressing extended-spectrum beta-lactamase; assay type: functional
[6] = Cmax in Sprague-Dawley rat at 10 mg/kg, po; assay type: ADME, organism-based; design: dose 10 mg/kg, route oral; conditions: in vivo
Enterococcus faecalis [7] = assay: Antibacterial activity against Enterococcus faecalis 14-3; assay type: functional
Staphylococcus aureus [8] = assay: Antibacterial activity against methicillin-resistant Staphylococcus aureus 14-5; assay type: functional
[9] = Tmax in Sprague-Dawley rat at 10 mg/kg, po; assay type: ADME, organism-based; conditions: in vivo
Staphylococcus aureus [10] = assay: Antibacterial activity against methicillin-sensitive Staphylococcus aureus 14-4; assay type: functional
[11] = Volume of distribution at steady state in Sprague-Dawley rat at 2 mg/kg, iv; assay type: ADME, organism-based; conditions: in vivo, read-out: Vdss
[12] = Clearance in Sprague-Dawley rat at 10 mg/kg, po; assay type: ADME, organism-based; conditions: Sprague-Dawley, in vivo
[13] = Half life in Sprague-Dawley rat at 2 mg/kg, iv; assay type: ADME, organism-based; conditions: in vivo
Staphylococcus aureus [14] = assay: Antibacterial activity against methicillin-sensitive Staphylococcus aureus 14-3; assay type: functional
Staphylococcus aureus [15] = assay: Antibacterial activity against methicillin-sensitive Staphylococcus aureus 14-2; assay type: functional
Staphylococcus aureus [16] = assay: Antibacterial activity against methicillin-sensitive Staphylococcus aureus 14-1; assay type: functional
[17] = AUC (0 to t) in Sprague-Dawley rat at 10 mg/kg, po; assay type: ADME, organism-based; conditions: in vivo
[18] = Cmax in Sprague-Dawley rat at 2 mg/kg, iv; assay type: ADME, organism-based; design: dose 2 mg/kg, route intravenous; conditions: in vivo
[19] = system: Staphylococcus epidermidis; assay: Antibacterial activity against methicillin-sensitive Staphylococcus epidermidis 14-1; assay type: functional
Enterococcus faecalis [20] = assay: Antibacterial activity against Enterococcus faecalis 14-1; assay type: functional
[21] = Oral bioavailability in Sprague-Dawley rat at 10 mg/kg; assay type: ADME, organism-based; conditions: in vivo
Escherichia coli [22] = assay: Antibacterial activity against Escherichia coli 14-2; assay type: functional
[23] = system: Staphylococcus epidermidis; assay: Antibacterial activity against methicillin-sensitive Staphylococcus epidermidis 14-2; assay type: functional
Rattus norvegicus [24] = assay: (§1) AUC (0 to t) in Sprague-Dawley rat at 2 mg/kg, iv; assay type: ADME, organism-based; conditions: in vivo
Rattus norvegicus [25] = assay: Volume of distribution at steady state in Sprague-Dawley rat at 10 mg/kg, po; assay type: ADME, organism-based; conditions: in vivo
Enterococcus faecalis [26] = assay: Antibacterial activity against Enterococcus faecalis 14-2; assay type: functional
Escherichia coli [27] = assay: Antibacterial activity against Escherichia coli 14-2 expressing extended-spectrum beta-lactamase; assay type: functional
[28] = Clearance in Sprague-Dawley rat at 2 mg/kg, iv; assay type: ADME, organism-based; conditions: in vivo
Escherichia coli [29] = assay: Antibacterial activity against Escherichia coli 14-1; assay type: functional
[30] = MRT (0 to t) in Sprague-Dawley rat at 2 mg/kg, iv; assay type: ADME, organism-based; conditions: in vivo
[31] = MRT (0 to t) in Sprague-Dawley rat at 10 mg/kg, po; assay type: ADME, organism-based; conditions: in vivo
Rattus norvegicus [32] = assay: (§2) AUC (0 to infinity) in Sprague-Dawley rat at 2 mg/kg, iv; assay type: ADME, organism-based; design: dose 2 mg/kg, route intravenous, time infinity; conditions: in vivo
[33] = Tmax in Sprague-Dawley rat at 2 mg/kg, iv; assay type: ADME, organism-based; conditions: in vivo
[34] = system: Staphylococcus epidermidis; assay: Antibacterial activity against methicillin-resistant Staphylococcus epidermidis 14-4; assay type: functional
[35] = system: Staphylococcus epidermidis; assay: Antibacterial activity against methicillin-resistant Staphylococcus epidermidis 14-1; assay type: functional
[36] = system: Staphylococcus epidermidis; assay: Antibacterial activity against methicillin-resistant Staphylococcus epidermidis 14-2; assay type: functional
[37] = as §1; assay type: ADME, organism-based; conditions: Sprague-Dawley, in vivo
[38] = system: Staphylococcus epidermidis; assay: Antibacterial activity against methicillin-resistant Staphylococcus epidermidis 14-3; assay type: functional
Staphylococcus aureus [39] = assay: Antibacterial activity against methicillin-resistant Staphylococcus aureus 14-1; assay type: functional
[40] = as §2; assay type: ADME, organism-based; design: dose 2 mg/kg, route intravenous, time infinity; conditions: Sprague-Dawley, in vivo
Staphylococcus aureus [41] = assay: Antibacterial activity against methicillin-resistant Staphylococcus aureus 14-2; assay type: functional
Staphylococcus aureus [42] = assay: Antibacterial activity against methicillin-resistant Staphylococcus aureus 14-4; assay type: functional

Row | SMILES | half-life [1] [h] | MIC (Enterococcus faecalis [2]) [µg/mL] | MIC [3] [µg/mL] | AUC(0-inf) [4] [ng·h/mL] | MIC (Escherichia coli [5]) [µg/mL] | Cmax [6] [ng/mL] | MIC (Enterococcus faecalis [7]) [µg/mL] | MIC (Staphylococcus aureus [8]) [µg/mL] | Tmax [9] [h] | MIC (Staphylococcus aureus [10]) [µg/mL] | Vd [11] [L/kg] | CL/F [12] [mL/min/kg] | half-life [13] [h] | MIC (Staphylococcus aureus [14]) [µg/mL] | MIC (Staphylococcus aureus [15]) [µg/mL] | MIC (Staphylococcus aureus [16]) [µg/mL] | AUC(0-t) [17] [ng·h/mL] | Cmax [18] [ng/mL] | MIC [19] [µg/mL] | MIC (Enterococcus faecalis [20]) [µg/mL] | also measured
1 | CCCC[C@H](CN(O)C=O)C(=O)N1CC2(CC2)C[C@H]1C(=O)Nc1ncc(C)s1 | 5 | 0.25 (≈ 0.612 µM) | < 0.008 | 2130 | 0.125 (≈ 0.306 µM) | 630 | 0.5 (≈ 1.22 µM) | < 0.008 | 0.58 | < 0.008 | 3.6 | 82.3 | 1.14 | < 0.008 | < 0.008 | < 0.008 | 2080 | 1090 | < 0.008 | 0.125 (≈ 0.306 µM) | bioavailability [21]: 30%; MIC (Escherichia coli [22]): 32 µg/mL (≈ 78.3 µM); MIC [23]: < 0.008 µg/mL; AUCt (Rattus norvegicus [24]): 653 ng·h/mL; Vdss (Rattus norvegicus [25]): 36.5 L/kg; MIC (Enterococcus faecalis [26]): 0.5 µg/mL (≈ 1.22 µM); MIC (Escherichia coli [27]): 32 µg/mL (≈ 78.3 µM); clearance [28]: 23.5 mL/min/kg; MIC (Escherichia coli [29]): 32 µg/mL (≈ 78.3 µM); MRT last [30]: 1.74 h; MRT last [31]: 4.42 h; AUC (Rattus norvegicus [32]): 653 ng·h/mL; Tmax [33]: 4.8 min; MIC [34]: < 0.008 µg/mL
2 | CCCC[C@H](CN(O)C=O)C(=O)N1CC2(CC2)C[C@H]1C(=O)Nc1cc(C(C)(C)C)on1 | 4.52 | > 128 | 0.015 (≈ 0.0345 µM) | 1980 | 1 (≈ 2.3 µM) | 860 | 0.5 (≈ 1.15 µM) | 0.06 (≈ 0.138 µM) | 0.58 | 0.06 (≈ 0.138 µM) | 2.7 | 90.6 | 1.23 | 0.25 (≈ 0.575 µM) | 0.125 (≈ 0.288 µM) | 0.125 (≈ 0.288 µM) | 1950 | 930 | 0.03 (≈ 0.069 µM) | 0.5 (≈ 1.15 µM) | MIC [35]: 0.03 µg/mL (≈ 0.069 µM); MIC [36]: 0.03 µg/mL (≈ 0.069 µM); bioavailability [21]: 35%; MIC (Escherichia coli [22]): 64 µg/mL (≈ 147 µM); MIC [23]: 0.125 µg/mL (≈ 0.288 µM); AUC(0-t) [37]: 1140 ng·h/mL; Vdss (Rattus norvegicus [25]): 36.2 L/kg; MIC (Enterococcus faecalis [26]): 0.5 µg/mL (≈ 1.15 µM); MIC (Escherichia coli [27]): 64 µg/mL (≈ 147 µM); MIC [38]: 0.015 µg/mL (≈ 0.0345 µM); clearance [28]: 29.6 mL/min/kg; MIC (Escherichia coli [29]): 64 µg/mL (≈ 147 µM); MRT last [30]: 1.5 h; MRT last [31]: 3.43 h; MIC (Staphylococcus aureus [39]): 0.06 µg/mL (≈ 0.138 µM); AUC(0-inf) [40]: 1140 ng·h/mL; Tmax [33]: 4.8 min; MIC (Staphylococcus aureus [41]): 0.06 µg/mL (≈ 0.138 µM); MIC (Staphylococcus aureus [42]): < 0.008 µg/mL; MIC [34]: 0.03 µg/mL (≈ 0.069 µM)
3 | CCCC[C@H](CN(O)C=O)C(=O)N1CC2(CC2)C[C@H]1c1nc2ccccc2[nH]1 | 4.46 | 64 (≈ 166 µM) | 0.5 (≈ 1.3 µM) | 2380 | 0.5 (≈ 1.3 µM) | 1680 | 8 (≈ 20.8 µM) | 0.5 (≈ 1.3 µM) | 0.25 | 2 (≈ 5.2 µM) | 3 | 70.9 | 5.23 | 2 (≈ 5.2 µM) | 2 (≈ 5.2 µM) | 2 (≈ 5.2 µM) | 2340 | 1740 | 0.5 (≈ 1.3 µM) | 8 (≈ 20.8 µM) | MIC [35]: 1 µg/mL (≈ 2.6 µM); MIC [36]: 1 µg/mL (≈ 2.6 µM); bioavailability [21]: 37%; MIC (Escherichia coli [22]): 32 µg/mL (≈ 83.2 µM); MIC [23]: 2 µg/mL (≈ 5.2 µM); AUC(0-t) [37]: 1260 ng·h/mL; Vdss (Rattus norvegicus [25]): 27.4 L/kg; MIC (Enterococcus faecalis [26]): 8 µg/mL (≈ 20.8 µM); MIC (Escherichia coli [27]): 32 µg/mL (≈ 83.2 µM); MIC [38]: 0.5 µg/mL (≈ 1.3 µM); clearance [28]: 26.4 mL/min/kg; MIC (Escherichia coli [29]): 32 µg/mL (≈ 83.2 µM); MRT last [30]: 1.91 h; MRT last [31]: 4.13 h; MIC (Staphylococcus aureus [39]): 1 µg/mL (≈ 2.6 µM); AUC(0-inf) [40]: 1270 ng·h/mL; Tmax [33]: 4.8 min; MIC (Staphylococcus aureus [41]): 2 µg/mL (≈ 5.2 µM); MIC (Staphylococcus aureus [42]): 2 µg/mL (≈ 5.2 µM); MIC [34]: 1 µg/mL (≈ 2.6 µM)
